Data on one compound can be found in patent publication US8765188B2, “Composition for treating and/or preventing osteoporosis” (Taipei Medical University, priority 2011, dated 2014).

The assay relates to ovariectomized rat model of osteoporosis. Nature of the assay: Bone histomorphometry of tibia trabecular bone with micro-CT. The assay is classed as in vivo. To be noted: OVX rats, DVAB composition 0.2 g/kg, positive 0.1 mg/5 ml/kg ethinylestridiol, 20 weeks. As for the experimental part:
In an ovariectomized rat model of osteoporosis, rats were divided into sham (5 ml/kg ddH2O without ovariectomy) and ovariectomized (OVX) groups. The OVX rats were then subdivided into two groups orally treated with 5 ml/kg ddH2O (control group) and DVAB composition (0.2 g/kg) daily for 20 weeks. The positive group refers to rats receiving 0.1 mg/5 ml/kg of ethinylestridiol.
Biomechanical strength also was measured by three-point bending test of femur and compression test of vertebra. Furthermore, the tibia from rats was measured by cancellous bone histomorphometry with micro-CT. In this study, percentage of bone volume (BV/TV), trabecular thickness (Tb, Th), trabecular number (Tb, N), trabecular separation (Tb, Sp) and structure model index (SMI) were measured.

Marks after values point to notes of the source that are not given here.

With `C#C[C@]1(O)CC[C@H]2[C@@H]3CCc4cc(O)ccc4[C@H]3CC[C@@]21C` [Positive Control, ethinylestridiol], the BV/TV was 25.69 +/− 10.41* %, the SMI is reported as 1.29 +/− 0.52^#, the Tb.N was 0.0028 +/− 0.0010* 1/μm and the Tb.Sp is listed as 255.99 +/− 94.24* μm. For the same compound, the Tb.Th is listed as 90.29 +/− 4.01 μm.
